Laboratory results as given in patent US9624206B2, “Antibacterial 1H-indazole and 1H-indole derivatives” (priority 2013, dated 2017).
≈ marks a conversion by molar mass, not a printed value.

How the values were obtained:
Test in all cases: Bacterial growth minimal inhibitory concentration (microdilution, CLSI M7-A7)
Type in all cases: cell-based
P. aeruginosa ATCC27853 = details: Pseudomonas aeruginosa, ATCC27853; quinolone-sensitive strain; cation-adjusted Mueller-Hinton Broth
Procedure: (§1) Minimal Inhibitory Concentrations (MICs; mg/L) were determined in cation-adjusted Mueller-Hinton Broth by a microdilution method following the description given in “Methods for Dilution Antimicrobial Susceptibility Tests for Bacteria that Grow Aerobically”, Approved standard, 7th ed., Clinical and Laboratory Standards Institute (CLSI) Document M7-A7, Wayne, Pa., USA (2006).
(§2) All Example compounds were tested against several Gram-positive and Gram-negative bacteria. […] K. pneumoniae A-651 and Acinetobacter baumannii T6474 are multiply-resistant strains (in particular quinolone-resistant), while E. coli ATCC25922 and P. aeruginosa ATCC27853 are quinolone-sensitive strains.

[1] = tested on: Acinetobacter baumannii T6474; details: Acinetobacter baumannii, T6474; multiply-resistant strain (in particular quinolone-resistant); cation-adjusted Mueller-Hinton Broth
Procedure: as §1, §2

K. pneumoniae A-651 = details: Klebsiella pneumoniae, A651; multiply-resistant strain (in particular quinolone-resistant); cation-adjusted Mueller-Hinton Broth
Procedure: as §1, §2

E. coli ATCC25922 = details: Escherichia coli, ATCC25922; quinolone-sensitive strain; cation-adjusted Mueller-Hinton Broth
Procedure: as §1, §2

C[C@@](CCn1ccc2cc(C#CC#CC3(O)COC3)ccc21)(C(=O)NO)S(C)(=O)=O [Example 11, (R)—N-hydroxy-4-(5-((3-hydroxyoxetan-3-yl)buta-1,3-diyn-1-yl)-1H-indol-1-yl)-2-methyl-2-(methylsulfonyl)butanamide] gave an MIC (P. aeruginosa ATCC27853) of 1 µg/mL (≈ 2.32 µM), an MIC [1] of 16 µg/mL (≈ 37.2 µM) and an MIC (K. pneumoniae A-651) of 0.25 µg/mL (≈ 0.581 µM). It also gave an MIC (E. coli ATCC25922) of 0.5 µg/mL (≈ 1.16 µM).
C[C@@](CCn1ncc2cc(C#Cc3ccc(C4(O)COC4)cc3)ccc21)(C(=O)NO)S(C)(=O)=O [Example 12, (R)—N-hydroxy-4-(5-((4-(3-hydroxyoxetan-3-yl)phenyl)ethynyl)-1H-indazol-1-yl)-2-methyl-2-(methylsulfonyl)butanamide] showed an MIC (P. aeruginosa ATCC27853) of 1 µg/mL (≈ 2.07 µM), an MIC [1] of 0.25 µg/mL (≈ 0.517 µM) and an MIC (K. pneumoniae A-651) of 0.25 µg/mL (≈ 0.517 µM). For the same compound, the MIC (E. coli ATCC25922) was 0.25 µg/mL (≈ 0.517 µM).
C[C@@](CCn1ncc2cc(C#CC#CC3(O)CSC3)ccc21)(C(=O)NO)S(C)(=O)=O [Example 13, (R)—N-hydroxy-4-(5-((3-hydroxythietan-3-yl)buta-1,3-diyn-1-yl)-1H-indazol-1-yl)-2-methyl-2-(methylsulfonyl)butanamide] gave an MIC (P. aeruginosa ATCC27853) of 1 µg/mL (≈ 2.23 µM), an MIC [1] of 8 µg/mL (≈ 17.9 µM) and an MIC (K. pneumoniae A-651) of 0.25 µg/mL (≈ 0.559 µM). It also gave an MIC (E. coli ATCC25922) of 0.25 µg/mL (≈ 0.559 µM).
C[C@@](CCn1ncc2cc(C#Cc3ccc(CCO)cc3)ccc21)(C(=O)NO)S(C)(=O)=O [Example 14, (R)—N-hydroxy-4-(5-((4-(2-hydroxyethyl)phenyl)ethynyl)-1H-indazol-1-yl)-2-methyl-2-(methylsulfonyl)butanamide] showed an MIC (P. aeruginosa ATCC27853) of 1 µg/mL (≈ 2.2 µM), an MIC [1] of 0.125 µg/mL (≈ 0.274 µM) and an MIC (K. pneumoniae A-651) of 0.25 µg/mL (≈ 0.549 µM). For the same compound, the MIC (E. coli ATCC25922) was at most 0.063 µg/mL.
C[C@@H](O)c1ccc(C#Cc2ccc3c(cnn3CC[C@](C)(C(=O)NO)S(C)(=O)=O)c2)cc1.Cl [Example 16, (R)—N-hydroxy-4-(5-((4-((R)-1-hydroxyethyl)phenyl)ethynyl)-1H-indazol-1-yl)-2-methyl-2-(methylsulfonyl)butanamide hydrochloride] gave an MIC (P. aeruginosa ATCC27853) of 1 µg/mL, an MIC [1] of 0.25 µg/mL and an MIC (K. pneumoniae A-651) of 0.125 µg/mL. For the same compound, the MIC (E. coli ATCC25922) was at most 0.063 µg/mL.
In the case of C[C@@](CCn1ccc2cc(C#CC#C[C@H]3C[C@@H]3CO)ccc21)(C(=O)NO)S(C)(=O)=O [Example 17, (R)—N-hydroxy-4-(5-(((1S,2S)-2-(hydroxymethyl)cyclopropyl)buta-1,3-diyn-1-yl)-1H-indol-1-yl)-2-methyl-2-(methylsulfonyl)butanamide], the MIC (P. aeruginosa ATCC27853) is reported as 0.5 µg/mL (≈ 1.17 µM), the MIC [1] is reported as 16 µg/mL (≈ 37.3 µM) and the MIC (K. pneumoniae A-651) is reported as 0.125 µg/mL (≈ 0.292 µM). It also gave an MIC (E. coli ATCC25922) of at most 0.063 µg/mL.
Work on C[C@@](CCn1ccc2cc(C#CC#C[C@@H]3C[C@H]3CO)ccc21)(C(=O)NO)S(C)(=O)=O [Example 18, (R)—N-hydroxy-4-(5-(((1R,2R)-2-(hydroxymethyl)cyclopropyl)buta-1,3-diyn-1-yl)-1H-indol-1-yl)-2-methyl-2-(methylsulfonyl)butanamide] yielded an MIC (P. aeruginosa ATCC27853) of 0.5 µg/mL (≈ 1.17 µM), an MIC [1] of 16 µg/mL (≈ 37.3 µM) and an MIC (K. pneumoniae A-651) of at most 0.063 µg/mL. The MIC (E. coli ATCC25922) was at most 0.063 µg/mL.
With C[C@@](CCn1ncc2cc(C#Cc3ccc([C@H]4C[C@@H]4CO)cc3)ccc21)(C(=O)NO)S(C)(=O)=O [Example 19, (R)—N-hydroxy-4-(5-((4-((1S,2S)-2-(hydroxymethyl)cyclopropyl)phenyl)ethynyl)-1H-indazol-1-yl)-2-methyl-2-(methylsulfonyl)butanamide] the MIC (P. aeruginosa ATCC27853) was 1 µg/mL (≈ 2.08 µM), the MIC [1] was at most 0.063 µg/mL and the MIC (K. pneumoniae A-651) was 0.25 µg/mL (≈ 0.519 µM). For the same compound, the MIC (E. coli ATCC25922) was 0.125 µg/mL (≈ 0.26 µM).
In the case of C[C@@](CCn1ncc2cc(C#Cc3ccc([C@@H]4C[C@H]4CO)cc3)ccc21)(C(=O)NO)S(C)(=O)=O [Example 20, (R)—N-hydroxy-4-(5-((4-((1R,2R)-2-(hydroxymethyl)cyclopropyl)phenyl)ethynyl)-1H-indazol-1-yl)-2-methyl-2-(methylsulfonyl)butanamide], the MIC (P. aeruginosa ATCC27853) is reported as 1 µg/mL (≈ 2.08 µM), the MIC [1] is reported as at most 0.063 µg/mL and the MIC (K. pneumoniae A-651) is reported as 0.25 µg/mL (≈ 0.519 µM). For the same compound, the MIC (E. coli ATCC25922) was at most 0.063 µg/mL.
C[C@@](CCn1ncc2cc(C#Cc3ccc([C@@H](O)CO)cc3)ccc21)(C(=O)NO)S(C)(=O)=O [Example 21, (R)-4-(5-((4-((R)-1,2-dihydroxyethyl)phenyl)ethynyl)-1H-indazol-1-yl)-N-hydroxy-2-methyl-2-(methylsulfonyl)butanamide] gave an MIC (P. aeruginosa ATCC27853) of 1 µg/mL (≈ 2.12 µM), an MIC [1] of 0.5 µg/mL (≈ 1.06 µM) and an MIC (K. pneumoniae A-651) of 1 µg/mL (≈ 2.12 µM). For the same compound, the MIC (E. coli ATCC25922) was 1 µg/mL (≈ 2.12 µM).
